Measurements taken from ChEMBL document CHEMBL1201862, “PubChem BioAssay data set” (2004).
One block for each molecule: values may come before it. Active and inactive are the calls of the source.

Key:
[1] = system: BJ; assay: cytotoxicity toward BJ-TERT fibroblasts, dose response, cell-based, RAS-independent, luminescence (AID 1933); assay type: functional; conditions: Homo sapiens
[2] = system: BJ; assay: cells; assay type: functional, cell-based; conditions: Homo sapiens
[3] = system: BJ; assay: cytotoxicity toward BJ-TERT-LT-ST fibroblasts, dose response, cell-based, RAS-independent, luminescence (AID 1935); assay type: functional; conditions: Homo sapiens;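 further: BJ fibroblasts immortalized with TERT plus LT and ST oncogenes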
[4] = cytotoxicity toward DRD oncogenic fibroblasts, dose response, cell-based, non-viral oncogenic, luminescence (AID 1934); assay type: functional; conditions: Homo sapiens
[5] = target: FAD-linked sulfhydryl oxidase ALR (Homo sapiens, UniProt P55789); assay: inhibitors of human ALR sulfhydryl oxidase, dose response, biochemical, H2O2 detection, luminescence, cherry-pick (AID 493248)
[6] = target: T1, Calpain-2 catalytic subunit (Sus scrofa, UniProt P43367); assay: pig calpain II inhibitor potency, dose response, biochemical, fluorogenic peptide substrate (AID 1420); assay type: functional
T1 sequence (P43367 whole entry): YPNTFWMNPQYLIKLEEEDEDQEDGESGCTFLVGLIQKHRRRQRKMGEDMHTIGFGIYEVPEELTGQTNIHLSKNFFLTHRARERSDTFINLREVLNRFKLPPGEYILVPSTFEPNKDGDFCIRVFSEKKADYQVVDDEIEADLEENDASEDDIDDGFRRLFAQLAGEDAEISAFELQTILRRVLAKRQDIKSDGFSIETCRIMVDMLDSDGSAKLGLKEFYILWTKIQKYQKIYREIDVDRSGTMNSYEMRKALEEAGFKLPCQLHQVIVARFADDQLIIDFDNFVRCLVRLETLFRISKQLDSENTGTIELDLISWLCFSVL

[7] = system: H9c2; assay: cells; assay type: functional, cell-based; conditions: Rattus norvegicus, H9c2, Myocardium;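 further: confirmatory concentration-response retest of ultra-high-throughput screening hits for modulation of myocardial damage; cell death induced by hydrogen peroxide oxidative stress; compound pretreatment for 60 min then peroxide exposure for 2 h; potency is for protecting the cells against peroxide damage rather than for killing them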
[8] = target: T2, High affinity choline transporter 1 (Homo sapiens, UniProt Q9GZV3); assay: CHT inhibitors, dose response, cell-based, 5-point CRC, membrane potential dye (AID 504840); assay type: functional
T2 sequence (Q9GZV3 whole entry): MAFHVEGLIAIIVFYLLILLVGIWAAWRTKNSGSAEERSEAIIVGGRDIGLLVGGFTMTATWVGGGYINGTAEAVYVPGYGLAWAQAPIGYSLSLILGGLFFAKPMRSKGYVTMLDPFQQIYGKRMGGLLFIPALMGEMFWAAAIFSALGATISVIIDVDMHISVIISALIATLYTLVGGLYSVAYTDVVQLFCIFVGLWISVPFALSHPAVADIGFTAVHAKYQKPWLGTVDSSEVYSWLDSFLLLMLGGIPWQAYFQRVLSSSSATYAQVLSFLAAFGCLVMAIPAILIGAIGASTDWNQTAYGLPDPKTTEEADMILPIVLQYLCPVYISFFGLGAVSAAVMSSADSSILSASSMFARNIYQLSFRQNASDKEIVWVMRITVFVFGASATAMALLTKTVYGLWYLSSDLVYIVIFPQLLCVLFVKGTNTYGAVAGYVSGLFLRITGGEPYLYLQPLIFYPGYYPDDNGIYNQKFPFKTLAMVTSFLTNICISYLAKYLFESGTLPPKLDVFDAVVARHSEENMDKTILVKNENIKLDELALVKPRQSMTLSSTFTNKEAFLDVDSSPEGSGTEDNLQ

[9] = target: T3, Polyadenylate-binding protein 1 (Homo sapiens, UniProt P11940); assay: PABP1 MLLE–PAM2 interaction inhibitors, dose response, miRNA deadenylation inhibitor project, biochemical, fluorescence polarization, Cy5-PAM2 peptide, secondary (AID 602260); assay type: functional; conditions: read-out: IC50_Mean
[10] = target: T3, Polyadenylate-binding protein 1; assay: PABP1 MLLE–PAM2 binding inhibitor potency, dose response, biochemical, fluorescence polarization, FITC-PAM2 peptide (AID 602259); assay type: functional; conditions: read-out: IC50_Mean
[11] = A549 cell cytotoxicity, dose response, cytotoxicity control, plate reader, cherry-pick, antagonist series (AID 743412); assay type: functional, cell-based
[12] = LGR2 antagonists, dose response, cell-based, HEK293, CRE-luciferase reporter, cherry pick, set 2 (AID 743343); assay type: functional;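 further: transfected cells were stimulated with diluted bursicon conditioned medium after compound addition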
[13] = MC4R antagonists, dose response, counter-screen for LGR2 antagonist project, cell-based, plate reader, cherry pick (AID 743444); assay type: functional;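 further: transfected HEK 293 cells stimulated with alpha-MSH peptide; potency of inhibitors of the alpha-MSH evoked signal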
[14] = target: T4, Rac GTPase-activating protein 1 (Homo sapiens, UniProt Q9H0H5); assay: MgcRacGAP GTPase-activating activity inhibitors, confirmation, biochemical, ADP Hunter fluorescence, primary and confirmatory (AID 624330); assay type: functional
T4 sequence (Q9H0H5 whole entry): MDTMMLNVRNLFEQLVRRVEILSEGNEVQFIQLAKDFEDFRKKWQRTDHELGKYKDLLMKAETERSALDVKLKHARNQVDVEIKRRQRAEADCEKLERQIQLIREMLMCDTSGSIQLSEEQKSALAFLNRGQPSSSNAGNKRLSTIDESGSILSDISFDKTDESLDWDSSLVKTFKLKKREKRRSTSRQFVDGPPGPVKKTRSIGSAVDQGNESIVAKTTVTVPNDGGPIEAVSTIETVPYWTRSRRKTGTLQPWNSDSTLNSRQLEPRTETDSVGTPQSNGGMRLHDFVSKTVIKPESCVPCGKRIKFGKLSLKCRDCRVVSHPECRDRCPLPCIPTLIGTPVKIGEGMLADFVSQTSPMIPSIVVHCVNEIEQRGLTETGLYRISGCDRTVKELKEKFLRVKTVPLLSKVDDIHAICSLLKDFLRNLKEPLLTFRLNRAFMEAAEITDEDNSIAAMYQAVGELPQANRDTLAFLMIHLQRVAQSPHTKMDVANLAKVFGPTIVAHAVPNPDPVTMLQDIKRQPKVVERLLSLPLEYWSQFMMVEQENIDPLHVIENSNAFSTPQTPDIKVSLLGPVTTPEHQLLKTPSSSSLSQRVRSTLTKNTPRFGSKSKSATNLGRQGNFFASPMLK

[15] = inhibitors of intracellular T. cruzi replication, confirmation, NIH3T3 host cells, beta-gal luminescence (AID 2044); assay type: functional, cell-based;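 further: intracellular parasites grown in NIH/3T3 mouse fibroblasts as host cells; luminescent beta-galactosidase reporter signal from transgenic T. cruzi replicating inside host cells; inhibitors lower the luminescence signal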
[16] = cytotoxicity toward NIH3T3 fibroblasts, dose response, counter-screen, cell-based, ATP luminescence, mouse fibroblasts (AID 2010); assay type: functional;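 further: cells exposed to compound for about 90 hours before reading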
[17] = system: INS1; assay: beta cell apoptosis inhibitors, cytokine rescue, dose response, luminescence, retest (AID 449756); assay type: functional, cell-based; conditions: Rattus norvegicus;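 further: cell death triggered by IL-1 beta plus TNF-alpha plus IFN-gamma mixture; protective hits raise ATP signal compared with cytokine alone wells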

T3 sequence (P11940 whole entry): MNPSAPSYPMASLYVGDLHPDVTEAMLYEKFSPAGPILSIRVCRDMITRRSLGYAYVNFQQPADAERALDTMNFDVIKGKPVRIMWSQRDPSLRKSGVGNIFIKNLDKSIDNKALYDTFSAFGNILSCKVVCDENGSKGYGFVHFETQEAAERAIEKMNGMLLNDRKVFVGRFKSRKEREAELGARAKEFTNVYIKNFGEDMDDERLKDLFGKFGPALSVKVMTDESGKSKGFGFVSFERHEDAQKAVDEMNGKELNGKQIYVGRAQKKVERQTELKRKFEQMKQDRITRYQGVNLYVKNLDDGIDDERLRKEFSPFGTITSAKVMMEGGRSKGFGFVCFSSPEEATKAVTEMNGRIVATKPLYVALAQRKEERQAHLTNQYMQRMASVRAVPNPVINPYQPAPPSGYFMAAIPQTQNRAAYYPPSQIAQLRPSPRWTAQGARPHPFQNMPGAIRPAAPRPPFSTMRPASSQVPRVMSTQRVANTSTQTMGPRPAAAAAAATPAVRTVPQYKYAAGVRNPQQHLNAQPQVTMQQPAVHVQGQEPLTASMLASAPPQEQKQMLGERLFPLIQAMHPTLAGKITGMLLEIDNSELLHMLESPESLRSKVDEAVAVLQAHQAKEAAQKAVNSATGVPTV
Chain of FAD-linked sulfhydryl oxidase ALR (P55789 whole entry): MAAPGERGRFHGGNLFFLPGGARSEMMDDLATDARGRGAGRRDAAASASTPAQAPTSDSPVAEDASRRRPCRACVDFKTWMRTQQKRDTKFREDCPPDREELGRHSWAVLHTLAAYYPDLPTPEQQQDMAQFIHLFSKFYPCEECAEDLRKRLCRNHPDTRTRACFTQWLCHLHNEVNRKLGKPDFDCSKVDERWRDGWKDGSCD

Structure (SMILES): O=C1CCCc2cc3c(cc21)CC1(C3)Cc2cc3c(cc2C1)C(=O)CCC3
EC50 [1]: 9.1 µM (active)
EC50 [2]: 33 µM (active)
EC50 [3]: 3.95 µM (inconclusive)
EC50 [4]: 15.6 µM (active)

Structure (SMILES): C=CCNC(=S)N/N=C/c1ccc(C)s1
IC50 [6]: 27.1 µM (not active)

Structure (SMILES): O=C(CCc1nc(O)c2ccccc2n1)N1CCN(c2ccccc2Cl)CC1
IC50 [7]: > 79 µM (inactive)

Structure (SMILES): CCOC(=O)CC1(CC(=O)OCC)NC(=O)c2c(C)sc(C(=O)OCC)c2N1
IC50 [8]: 13.8 µM (active)

Structure (SMILES): Cc1cc(C(F)(F)F)nc(SCC(=O)NC2=NC(=O)C(C)S2)n1 (stereo not drawn)
IC50 [9]: > 66 µM (inactive)
IC50 [10]: > 66 µM (inactive)

Structure (SMILES): CCO/C(O)=C1/Sc2cc(C)ccc2N=C1C
IC50 [9]: > 66 µM (inactive)
IC50 [10]: > 66 µM (inactive)

Structure (SMILES): CCCCN(CC)CCNC(=O)CNC(=O)Cn1ccc2ccccc2c1=O
IC50 [6]: 46.5 µM (not active)

Structure (SMILES): COc1ccccc1N/C=C/c1onc(C)c1[N+](=O)[O-]
AC50 [11]: > 52 µM (inactive)
AC50 [12]: 3.4 µM (active)
AC50 [13]: 4.75 µM (active)

Structure (SMILES): CC(OC(=O)Cc1nnc(O)c2ccccc12)C(=O)Nc1ccc(F)cc1 (stereo not drawn)
IC50 [7]: > 79 µM (inactive)

Structure (SMILES): Cc1cccc(NC(=O)c2[nH]cnc2C(=O)NCC(=O)OCc2ccccc2)c1
IC50 [7]: > 79 µM (inactive)

Structure (SMILES): Cc1cccc(NC(=O)c2oc3ccc(S(=O)(=O)N4CCOCC4)cc3c2C)c1C
IC50 [7]: > 79 µM (inactive)

Structure (SMILES): Cc1cc(N2CCCC2)ccc1NC(=O)CN1C(=O)NC2(CCCCC2)C1=O
AC50 [5]: 0.644 µM (active)
IC50 [14]: 268 µM (active)

Structure (SMILES): CCn1c(-c2ccc(N(C)C)cc2)nc2ccccc21
EC50 [15]: 1.67 µM (active)
EC50 [16]: > 60 µM (not active)
AC50 [5]: 1.48 µM (active)
AC50 [17]: 4.25 µM (active)

Further lines, results first:

AC50 [5]: 3.68 µM (active)
Structure (SMILES): Cc1ncsc1CCC(=O)N1CCCC(Nc2ccc(C(C)C)cc2)C1 (stereo not drawn)

IC50 [6]: 20 µM (not active)
Structure (SMILES): CC(=O)Nc1ccc(Nc2ccc(S(=O)(=O)C(F)(F)F)cc2[N+](=O)[O-])cc1

IC50 [9]: > 66 µM (inactive)
IC50 [10]: > 66 µM (inactive)
Structure (SMILES): Cc1cc(NS(=O)(=O)c2ccc(NC(=S)NC(=O)c3ccc(F)cc3)cc2)no1

IC50 [9]: > 66 µM (inactive)
IC50 [10]: > 66 µM (inactive)
Structure (SMILES): Cc1ccc(N=C(S)C2=C(O)c3ccccc3N(C)S2(=O)=O)cc1

AC50 [5]: 35.5 µM (active)
Structure (SMILES): CN(C)c1ccc(/C=N/NC(=O)c2ccccn2)cc1

IC50 [9]: > 66 µM (inactive)
IC50 [10]: > 66 µM (inactive)
Structure (SMILES): CC(Oc1ccccc1Cl)C(=O)Nc1ccc(S(=O)(=O)N2CCN(C)CC2)cc1 (stereo not drawn)
